One experiment deals with SW480 (G12V). Nature of the experiment: In vitro cell proliferation inhibition test (CellTiter-Glo Luminescent Cell Viability Assay). It counts as cell-based. The settings on record: SW480 cell line, Large intestine, Colon, KRAS (p.G12V), cells and compounds co-incubated 72 hours. The source says:
(§1) Due to the diversity of RAS mutations and in order to evaluate the activity of compounds in different RAS mutant cell lines, we selected KRAS^WT, KRAS^G12C, KRAS^G12D), KRAS^G12V and BRAF mutant cell lines (see the table below) for in vitro activity evaluation and screening of compounds .
(§2) Experimental protocol: CellTiter-Glo® Cell Luminescent Viability Assay (Promega)
(§3) According to the doubling time of different cell lines, different numbers of cells (1000-5000 cells/well) were inoculated into 96-well plates containing 180 µl of the corresponding medium, and cultured overnight in a 37°C cell incubator containing 5% CO2. On the second day, the compound to be tested was pre-diluted 3-fold with the medium, the highest concentration was 100 µM, and there were 10 concentration gradients in total; then 20 µl of the medium containing different concentrations of the compound was added to the cells in the 96-well plate to ensure the final concentration of the compound to be up to 10 µM, with 10 concentration gradients of 3-fold dilutions. After co-incubating cells and compounds for 72 hours, the 96-well plate was taken out of the incubator, placed at room temperature for 30 minutes, and then 25 µl CellTiter-Glo® Reagent was added to each well to mix well, and incubated at room temperature for 10 minutes, and then 100 µl of the sample was transferred to a white 96-well plate (OptiPlateTM-96, PerkinElmer), the […] signal value was read using a multi-functional microplate reader (SpectraMax® i3x, Molecular devices). Subsequently, the signal value was standardized, and the four-parameter fitting regression equation was used for curve fitting to calculate the half maximal inhibitory concentration (IC50) of the compound on the cell line. Table 3: Antiproliferative activity of compounds of the present invention on KRAS cell mutants
On the technique in general: Cellular ATP, detected with luciferase, serves as a proxy for viable cell number.

The subject of another experiment is AsPC-1 (G12D). Described as above. In kind it is cell-based. The following applies: AsPC-1 cell line, Pancreas, KRAS (p.G12D), cells and compounds co-incubated 72 hours.
Text: as §1, §2, §3

One may read the IC50 as the midpoint of a concentration-inhibition curve.

Turning to `CCn1c(-c2cc(C#CCN3CCOCC3)cnc2[C@H](C)OC)c2c3cc(ccc31)-c1csc(n1)C[C@H](NC(=O)C1CC1)C(=O)N1CCC[C@H](N1)C(=O)OCC(C)(C)C2` [Example 54, N-((6^3S,4S,Z)-1^1-ethyl-1^2-(2-((S)-1-methoxyethyl)-5-(3-morpholinoprop-1-yn-1-yl)pyridin-3-yl)-10,10-dimethyl-5,7-dioxo-6^1,6^2,6^3,6^4,6^5,6^6-hexahydro-1^1H-8-oxa-2(4,2)-thiazola-1(5,3)-indola-6(1,3)-pyridazinacycloundecaphane-4-yl)cyclopropanecarboxamide], the IC50 in the experiment on SW480 (G12V) is 35 nM; with AsPC-1 (G12D), 17.3 nM.

Take `CCn1c(-c2cc(C#CCN3CCOCC3)cnc2[C@H](C)OC)c2c3cc(ccc31)-c1csc(n1)C[C@H](NC(=O)[C@H]1C[C@@H]1c1ccccc1)C(=O)N1CCC[C@H](N1)C(=O)OCC(C)(C)C2` (single isomer, unassigned) [Example 23]: the concentration for half-maximal inhibition (IC50) in the experiment on SW480 (G12V) was determined as 3.8 nM; with AsPC-1 (G12D), 1.6 nM.

Regarding “(1S,2S)-N-((6^3S,4S,Z)-1^2-(5-(3-(dimethylamino)prop-1-yn-1-yl)-2-((S)-1-methoxyethyl)pyridin-3-yl)-1^1-ethyl-10,10-dimethyl-5,7-dioxo-6^1,6^2,6^3,6^4,6^5,6^6-hexahydro-1^1H-8-oxa-2(4,2)-thiazola-1(5,3)-indola-6(1,3)-pyridazinacycloundecaphane-4-yl)-2-methylcyclopropane-1-carboxamide [Example 61]”, the IC50 in the experiment with SW480 (G12V) was 1.58 nM; with AsPC-1 (G12D), 5 nM.

As for `CCn1c(-c2cc(C#CCN3CCC(F)C3)cnc2C(C)OC)c2c3cc(ccc31)-c1csc(n1)CC(NC(=O)C1C(C)C1C)C(=O)N1CCCC(N1)C(=O)OCC(C)(C)C2` (single isomer, unassigned) [Example 21], the figures for the 50% inhibitory concentration (IC50) in the experiment on SW480 (G12V) and with AsPC-1 (G12D) were 1.1 nM and 0.82 nM, respectively.

With `CCn1c(-c2cc(C#CCN3CCCCC3)cnc2[C@H](C)OC)c2c3cc(ccc31)-c1csc(n1)C[C@H](NC(=O)[C@H]1C[C@@H]1C)C(=O)N1CCC[C@H](N1)C(=O)OCC(C)(C)C2` [Example 59, (1S,2S)-N-((6^3S,4S,Z)-1^1-ethyl-1^2-(2-((S)-1-methoxyethyl)-5-(3-(piperidin-1-yl)prop-1-yn-1-yl)pyridin-3-yl)-10,10-dimethyl-5,7-dioxo-6^1,6^2,6^3,6^4,6^5,6^6-hexahydro-1^1H-8-oxa-2(4,2)-thiazola-1(5,3)-indola-6(1,3)-pyridazinacycloundecaphane-4-yl)-2-methylcyclopropane-1-carboxamide], the IC50 was 1.76 nM in the experiment on SW480 (G12V) and 0.96 nM in the experiment on AsPC-1 (G12D).

In the case of `CCn1c(-c2cc(C#CCN(C)C3CCOCC3)cnc2C(C)OC)c2c3cc(ccc31)-c1csc(n1)CC(NC(=O)C1C(C)C1C)C(=O)N1CCCC(N1)C(=O)OCC(C)(C)C2` [Example 36, (1r,2R,3S)-N-((6^3S,4S,Z)-1^1-ethyl-1^2-(2-((S)-1-methoxyethyl)-5-(3-(methyl(tetrahydro-2H-pyran-4-yl)amino)prop-1-yn-1-yl)pyridin-3-yl)-10,10-dimethyl-5,7-dioxo-6^1,6^2,6^3,6^4,6^5,6^6-hexahydro-1^1H-8-oxa-2(4,2)-thiazola-1(5,3)-indola-6(1,3)-pyridazinacycloundecaphane-4-yl)-2,3-dimethylcyclopropane-1-carboxamide], the results for the IC50 in the experiment on SW480 (G12V) and with AsPC-1 (G12D) were 0.54 nM and 0.73 nM, respectively.

Take `CCn1c(-c2cc(C#C[C@@H]3COCCN3C)cnc2[C@H](C)OC)c2c3cc(ccc31)-c1csc(n1)C[C@H](NC(=O)[C@H]1C[C@@H]1C)C(=O)N1CCC[C@H](N1)C(=O)OCC(C)(C)C2` [Example 28, (1S,2S)-N-((6^3S,4S,Z)-1^1-ethyl-1^2-(2-((S)-1-methoxyethyl)-5-(((R)-4-methylmorpholin-3-yl)ethynyl)pyridin-3-yl)-10,10-dimethyl-5,7-dioxo-6^1,6^2,6^3,6^4,6^5,6^6-hexahydro-1^1H-8-oxa-2(4,2)-thiazola-1(5,3)-indola-6(1,3)-pyridazinacycloundecaphane-4-yl)-2-methylcyclopropane-1-carboxamide]: the figures for the IC50 with SW480 (G12V) and with AsPC-1 (G12D) were 2.5 nM and 1.9 nM, respectively.

Regarding `CCNc1ccc(C#Cc2cnc(C(C)OC)c(-c3c4c5cc(ccc5n3CC)-c3csc(n3)CC(NC(=O)C3C(C)C3C)C(=O)N3CCCC(N3)C(=O)OCC(C)(C)C4)c2)nn1` [32+32, (1r,2R,3S)-N-((6^3S,4S,Z)-1^1-ethyl-1^2-(5-((6-(ethylamino)pyridazin-3-yl)ethynyl)-2-((S)-1-methoxyethyl)pyridin-3-yl)-10,10-dimethyl-5,7-dioxo-6^1,6^2,6^3,6^4,6^5,6^6-hexahydro-1^1H-8-oxa-2(4,2)-thiazola-1(5,3)-indola-6(1,3)-pyridazinacycloundecaphane-4-yl)-2,3-dimethylcyclopropane-1-carboxamide], the IC50 in the experiment on SW480 (G12V) is 55.4 nM; in the experiment on AsPC-1 (G12D), 15.3 nM.

As for `CCn1c(-c2cc(C#Cc3ccccn3)cnc2[C@H](C)OC)c2c3cc(ccc31)-c1csc(n1)C[C@H](NC(=O)[C@H]1C[C@@H]1C)C(=O)N1CCC[C@H](N1)C(=O)OCC(C)(C)C2` [Example 16, (1S,2S)-N-((63S,4S,Z)-11-ethyl-12-(2-((S)-1-methoxyethyl)-5-(pyridin-2-ylethynyl)pyridin-3-yl)-10,10-dimethyl-5,7-dioxo-61,62,63,64,65,66-hexahydro-11H-8-oxa-2(4,2)-thiazola-1(5,3)-indola-6(1,3)-pyridazinacyclonecaphane-4-yl)-2-methylcyclopropane-1-carboxamide], the half-inhibitory concentration (IC50) in the experiment on SW480 (G12V) turned out to be 28.8 nM; in the experiment with SW480 (G12V) (listed as 16') it was 584 nM; in the experiment with AsPC-1 (G12D), 38.8 nM; with AsPC-1 (G12D) (listed as 16'), 591 nM.

With `CCn1c(-c2cc(C#CCN3CCOCC3)cnc2C(C)OC)c2c3cc(ccc31)-c1csc(n1)CC(NC(=O)C1CC1F)C(=O)N1CCCC(N1)C(=O)OCC(C)(C)C2` (single isomer, unassigned) [Example 24], the 50% inhibitory concentration (IC50) with SW480 (G12V) was determined as 58.4 nM; with AsPC-1 (G12D), 24.2 nM.

For the compound `CCn1c(-c2cc(C#CCN3CCO[C@@H](C)C3)cnc2[C@H](C)OC)c2c3cc(ccc31)-c1csc(n1)C[C@H](NC(=O)[C@H]1C[C@@H]1C)C(=O)N1CCC[C@H](N1)C(=O)OCC(C)(C)C2` (single isomer, unassigned) [Example 4], the half-maximal inhibitory concentration (IC50) in the experiment with SW480 (G12V) was 2.9 nM; in the experiment with SW480 (G12V) (listed as 4'), 813 nM; in the experiment on AsPC-1 (G12D), 4.9 nM; with AsPC-1 (G12D) (listed as 4'), 523 nM.

As for “(1r,2R,3S)-N-((6^3S,4S,Z)-1^1-ethyl-1^2-(5-(3-((R)-3-(hydroxymethyl)morpholino)prop-1-yn-1-yl)-2-((S)-1-methoxyethyl)pyridin-3-yl)-10,10-dimethyl-5,7-dioxo-6^1,6^2,6^3,6^4,6^5,6^6-hexahydro-1^1H-8-oxa-2(4,2)-thiazola-1(5,3)-indola-6(1,3)-pyridazinacycloundecaphane-4-yl)-2,3-dimethylcyclopropane-1-carboxamide [Example 38]”, the IC50 was found to be 0.18 nM in the experiment with SW480 (G12V) and 0.07 nM in the experiment on AsPC-1 (G12D).

For the compound `CCn1c(-c2cc(C#CCN3CCOCC3)cnc2[C@H](C)OC)c2c3cc(ccc31)-c1csc(n1)C[C@H](NC(=O)[C@H]1[C@H](C)[C@@H]1C)C(=O)N1CCC[C@H](N1)C(=O)OCC(C)(C)C2` [Example 2, (1r,2R,3S)-N-((63S,4S,Z)-11-ethyl-12-(2-((S)-1-methoxyethyl)-5-(3-morpholinoprop-1-yn-1-yl)pyridin-3-yl)-10,10-dimethyl-5,7-dioxo-61,62,63,64,65,66-hexahydro-11H-8-oxa-2(4,2)-thiazola-1(5,3)-indola-6(1,3)-pyridazinacycloundecaphane-4-yl)-2,3-dimethylcyclopropane-1-carboxamide], the IC50 in the experiment on SW480 (G12V) came to 0.33 nM; in the experiment on SW480 (G12V) (listed as 2'), 74 nM; in the experiment on AsPC-1 (G12D), 0.25 nM; with AsPC-1 (G12D) (listed as 2'), 172 nM.

On to `CCn1c(-c2cc(C#CC3CN(C)CCO3)cnc2C(C)OC)c2c3cc(ccc31)-c1csc(n1)CC(NC(=O)C1CC1C)C(=O)N1CCCC(N1)C(=O)OCC(C)(C)C2` (single isomer, unassigned) [Example 6], for which the IC50 in the experiment on SW480 (G12V) turned out to be 18.5 nM; in the experiment on SW480 (G12V) (listed as 6') it was 1830 nM; with AsPC-1 (G12D), 14 nM; in the experiment on AsPC-1 (G12D) (listed as 6'), 3960 nM.

(Values after patent publication EP4582426A1, “PAN-KRAS INHIBITOR COMPOUND” (Adlai Nortye Biopharma Co., Ltd., priority 2022, dated 2024).)
